In the NIST ThermoML archive (doi:10.1021/acs.jced.9b00311):
Numbers after ± are expanded uncertainties.

Assays:
[1] = Liquid; for mass density: Vibrating tube method; for speed of sound: Frequency=3 MHz, Pulse-echo method
[2] = xn = mol fraction of the nth substance listed; details: Liquid, Vibrating tube method, x1 = 1

Compound	mass density ([1]; 303.15 K, 10000 kPa) [kg/m3]	mass density ([1]; 303.15 K, 20000 kPa) [kg/m3]	mass density ([1]; 303.15 K, 30000 kPa) [kg/m3]	mass density ([1]; 303.15 K, 40000 kPa) [kg/m3]	mass density ([1]; 303.15 K, 50000 kPa) [kg/m3]	mass density ([1]; 303.15 K, 60000 kPa) [kg/m3]	mass density ([1]; 303.15 K, 70000 kPa) [kg/m3]	mass density ([1]; 313.15 K, 10000 kPa) [kg/m3]	mass density ([1]; 313.15 K, 20000 kPa) [kg/m3]	mass density ([1]; 313.15 K, 30000 kPa) [kg/m3]	mass density ([1]; 313.15 K, 40000 kPa) [kg/m3]	mass density ([1]; 313.15 K, 50000 kPa) [kg/m3]	mass density ([1]; 313.15 K, 60000 kPa) [kg/m3]	mass density ([1]; 313.15 K, 70000 kPa) [kg/m3]	also measured
O=C=O [carbon dioxide]	770.5 ± 1.8	890.1 ± 0.5	949.2 ± 0.5	989.1 ± 0.5	1020 ± 0.5	1045.8 ± 0.5	1068 ± 0.5	628.9 ± 1.9	839.3 ± 1.1	909.2 ± 0.6	955.5 ± 0.6	990.5 ± 0.5	1019 ± 0.5	1043.5 ± 0.5	
O=C=O [carbon dioxide] + CCCCCCCCCCCC															mass density ([2]; 303.15 K, 10000 kPa): 770.5 ± 1.8 kg/m3; mass density ([2]; 303.15 K, 20000 kPa): 890.1 ± 0.5 kg/m3; mass density ([2]; 303.15 K, 30000 kPa): 949.2 ± 0.5 kg/m3; mass density ([2]; 303.15 K, 40000 kPa): 989.1 ± 0.5 kg/m3; mass density ([2]; 303.15 K, 50000 kPa): 1020 ± 0.5 kg/m3; mass density ([2]; 303.15 K, 60000 kPa): 1045.8 ± 0.5 kg/m3; mass density ([2]; 303.15 K, 70000 kPa): 1068 ± 0.5 kg/m3; mass density ([2]; 313.15 K, 10000 kPa): 628.9 ± 1.9 kg/m3; mass density ([2]; 313.15 K, 20000 kPa): 839.3 ± 1.1 kg/m3; mass density ([2]; 313.15 K, 30000 kPa): 909.2 ± 0.6 kg/m3; mass density ([2]; 313.15 K, 40000 kPa): 955.5 ± 0.6 kg/m3; mass density ([2]; 313.15 K, 50000 kPa): 990.5 ± 0.5 kg/m3; mass density ([2]; 313.15 K, 60000 kPa): 1019 ± 0.5 kg/m3; mass density ([2]; 313.15 K, 70000 kPa): 1043.5 ± 0.5 kg/m3
CCCCCCCCCCCC [dodecane]	748.5 ± 0.8	755.1 ± 0.9	761.3 ± 1	766.9 ± 1	772 ± 1	776.8 ± 1.1	781.4 ± 1.1	741.6 ± 0.8	748.5 ± 0.9	754.8 ± 0.9	760.8 ± 1	766.3 ± 1.1	771.5 ± 1.1	776.4 ± 1.1	speed of sound ([1]; 303.15 K, 10000 kPa): 1318.5 ± 1.8 m/s; speed of sound ([1]; 303.15 K, 20000 kPa): 1372.4 ± 1.8 m/s; speed of sound ([1]; 303.15 K, 30000 kPa): 1421.4 ± 1.8 m/s; speed of sound ([1]; 303.15 K, 40000 kPa): 1468.5 ± 1.9 m/s; speed of sound ([1]; 303.15 K, 50000 kPa): 1512.3 ± 1.9 m/s; speed of sound ([1]; 303.15 K, 60000 kPa): 1553.7 ± 1.9 m/s; speed of sound ([1]; 303.15 K, 70000 kPa): 1593.3 ± 2 m/s; speed of sound ([1]; 313.15 K, 10000 kPa): 1281.7 ± 1.8 m/s; speed of sound ([1]; 313.15 K, 20000 kPa): 1337.9 ± 1.8 m/s; speed of sound ([1]; 313.15 K, 30000 kPa): 1389.6 ± 1.8 m/s; speed of sound ([1]; 313.15 K, 40000 kPa): 1436.8 ± 1.8 m/s; speed of sound ([1]; 313.15 K, 50000 kPa): 1481.5 ± 1.9 m/s; speed of sound ([1]; 313.15 K, 60000 kPa): 1524.2 ± 1.9 m/s; speed of sound ([1]; 313.15 K, 70000 kPa): 1564.6 ± 1.9 m/s
